This note sets out measurements from publication PMC9251361, “Effects of LPS Composition in Escherichia coli on Antibacterial Activity and Bacterial Uptake of Antisense Peptide-PNA Conjugates” (Frontiers in Microbiology, 2022).

One test relates to E. coli K12 MG1655. Put plainly: microbe, parasite or virus in culture. It is filed as cell-based, Escherichia coli. To be noted: Escherichia coli; Table 4; strain MG1655; MHB, 37°C, 18 h; read-out: MIC values, Carbenicillin. The procedure:
(§1) All strains used in this study are listed in Supplementary Table S1. E. coli strains WD101 and WD101ΔeptAΔarnD (WD101ΔΔ) were kindly provided by Professor M. Stephen Trent (University of Georgia, USA). E. coli strains DB wild type, DB L5, and DB L9 were kindly provided by Dr. Douglas Browning (University of Birmingham, UK). Single deletion strains for envelope mutants were obtained from the Keio-collection (Baba et al., [2006]). All strains were grown in non-cation adjusted Muller Hinton broth (MHB) (Sigma, Cat. No. 70192). BPP-PNA conjugates (Table 1) were obtained as described previously (Good et al., [2001]; Ghosal et al., [2013]; Hansen et al., [2016]).
(§2) Minimum inhibitory concentration (MIC) values were determined by broth microdilution according to standard protocols adapted to peptide-based antimicrobial compounds (Goltermann and Nielsen, [2020]). Briefly, 190 μl bacterial cell culture containing ≈10^5 cfu/ml was dispensed into a 96-well plate (Thermo Scientific, Nunc Cat. No. 260896, 96F straight w/lid) along with 10 μl PNA stock solution or antibiotic. The plate was incubated in a Tecan Genios plate reader at 37°C for 18 h, and OD was measured every 20 min at 595 nm. The MIC was determined as the lowest concentration, which inhibited visible growth (OD < 0.1) in the wells. […] Experiments were performed in triplicates as a minimum.

The test system of test [1] is E. coli BW25113 hydN mutant (Keio collection). As to the kind of experiment: MIC broth microdilution. The format is cell-based. To be noted: Escherichia coli, BW25113, 18 h, read-out: MIC values, Carbenicillin. The procedure:
as §1, §2

Test [2] deals with E. coli BW25113 metL mutant (Keio collection). As to the kind of experiment: MIC broth microdilution. The format is cell-based. Conditions: Escherichia coli, BW25113, 18 h, read-out: MIC values, Carbenicillin. The procedure: as §1, §2
(Dilution methods test growth across graded concentrations, often in twofold steps.)

In test [3] the test system is E. coli BW25113 mrcB mutant (Keio collection). As to the kind of experiment: MIC broth microdilution. It is filed as cell-based. To be noted: Escherichia coli, BW25113, 18 h, read-out: MIC values, Carbenicillin. Here is the method: as §1, §2
Test [4] has as its system E. coli BW25113 ppiB mutant (Keio collection). As to the kind of experiment: MIC broth microdilution. The format is cell-based. Conditions: Escherichia coli, BW25113, 18 h, read-out: MIC values, Carbenicillin. The procedure:
as §1, §2

The subject of test [5] is E. coli BW25113 tolB mutant (Keio collection). As to the kind of experiment: MIC broth microdilution. The format is cell-based. Conditions: Escherichia coli, BW25113, 18 h, read-out: MIC values, Carbenicillin. Here is the method: as §1, §2
Test [6] concerns E. coli BW25113 tolQ mutant (Keio collection). Put plainly: MIC broth microdilution. It is filed as cell-based. Conditions: Escherichia coli, BW25113, 18 h, read-out: MIC values, Carbenicillin. The procedure: as §1, §2
The subject of test [7] is E. coli BW25113 tolR mutant (Keio collection). Put plainly: MIC broth microdilution. It is filed as cell-based. Conditions: Escherichia coli, BW25113, 18 h, read-out: MIC values, Carbenicillin. Here is the method:
as §1, §2

In the next test the test system is E. coli BW25113. Put plainly: MIC broth microdilution. To be noted: Escherichia coli; Table 4; strain BW25113; MHB, 37°C, 18 h; read-out: MIC values, Carbenicillin. It is filed as cell-based. The procedure: as §1, §2
Test [8] deals with E. coli tolB, tolQ, and tolR mutants. Put plainly: MIC broth microdilution, tol mutants as a group. It is filed as cell-based, Escherichia coli. Here is the method: as §2
The Pal-Tol-system, an envelope spanning complex involved in maintaining the outer membrane integrity, has previously been implicated in general antibiotic susceptibility, and thus was also investigated.

The structures appear in SMILES notation. Converted amounts (≈) assume the structure as drawn.

For `CC1(C)S[C@@H]2[C@H](NC(=O)C(C(=O)O)c3ccccc3)C(=O)N2[C@H]1C(=O)O` (stereo partly shown) [Carbenicillin], the MIC was 16 µg/mL (≈ 42.3 µM) with E. coli K12 MG1655; 16 µg/mL (≈ 42.3 µM) in [1]; 16 µg/mL (≈ 42.3 µM) in test [2]; 4 µg/mL (≈ 10.6 µM) in test [3]; 16 µg/mL (≈ 42.3 µM) in test [4]; ≤ 2 µg/mL in test [5]. Besides, the MIC was ≤ 2 µg/mL in [6], 2 to 4 µg/mL (≈ 5.29 to 10.6 µM) in test [7] and 8 µg/mL (≈ 21.1 µM) with E. coli BW25113. Further, in [8], the “fold increase in carbenicillin susceptibility” value was “circa 8 fold”.
